Source: patent US12258339B2, “Macrocyclic complexes of alpha-emitting radionuclides and their use in targeted radiotherapy of cancer” (Cornell University, priority 2018, dated 2025)

Test: In vivo biodistribution of ^225Ac complexes of macropa and DOTA and of ^225Ac(NO3)3 in mice
Parameters: species or system C57BL/6 mice
Procedure: In Vivo Biodistribution of ^225Ac Complexes of Macropa and DOTA. All experiments were approved by the Institutional Animal Care Committee (IACC) of the University of British Columbia and were performed in accordance with the Canadian Council on Animal Care Guidelines. A total of 9 female C57BL/6 mice (6-8 weeks old, 20-25 g) were used for the biodistribution study of each radiometal complex, n=3 for each time point.
Macropa (100 μL of a 1 mg/mL solution in NH4OAc) was diluted with 387 μL of NH4OAc (1 M, pH 7), and an aliquot (203 μL) of ^225Ac(NO3)3 (˜157 kBq) was then added; the pH of this solution was adjusted to 6.5-7 by the addition of 1 M NaOH (210 μL, trace metal grade). After 5 min at ambient temperature, the reaction solution was analyzed by TLC (0.4 M pH 4 sodium citrate as the eluent), which confirmed >95% radiochemical yield. The reaction was allowed to proceed overnight, and the radiochemical yield was again confirmed to be >95% the following morning. At this time, mice were anesthetized by 2% isoflurane, and approximately 100 μL (10-15 kBq) of the [^225Ac(macropa)]^+ complex were injected into the tail vein of each mouse. After injection, mice were allowed to recover and roam freely in their cages, and were euthanized by CO2 inhalation at 15 min, 1 h, or 5 h (n=3 at each time point) post-injection. Blood was collected by cardiac puncture and placed into an appropriate test tube for scintillation counting. Tissues collected included heart, liver, kidneys, lungs, small intestine, large intestine, brain, bladder, spleen, stomach, pancreas, bone, thyroid, tail, urine, and feces. Tissues were weighed and then counted with a calibrated gamma counter (Packard, Cobra II model 5002) using three energy windows: 60-120 keV (window A), 180-260 keV (window B), and 400-480 keV (window C). Counting was performed both immediately after sacrifice and after 7 days; counts were decay corrected from the time of injection and then converted to the percentage of injected dose (% ID) per gram of tissue (% ID/g). […]
The biodistribution studies of [^225Ac(DOTA)]^− and ^225Ac(NO3)3 were carried out as described above for [^225Ac(macropa)]^+, with the following modifications. [^225Ac(DOTA)^− was prepared by adding ^225Ac(NO3)3 (338 μL, 1.1 MBq) to a solution of DOTA (100 μg, 20 mg/mL in H2O) in NH4OAc (467 μL, 0.15 M, pH 7). The pH of the solution was adjusted to 7 using NH4OAc (150 μL, 1 M, pH 7) and the solution was heated at 85° C. for 45 min. RCY>99% was confirmed by TLC as described above. [^225Ac(DOTA)]^− was diluted with saline to a final concentration of 0.05 MBq/100 μL, and 100 μL were injected into each mouse. ^225Ac(NO3)3 (˜58 μL, 0.4 MBq) was diluted and injected in the same manner as [^225Ac(DOTA)]^−. One mouse that was to be euthanized at the 5 h time point in the [^225Ac(DOTA)]^− study died shortly after injection. In the same manner, one mouse that was to be euthanized at the 1 h time point in the ^225Ac(NO3)3 study died.
The in vivo stability [^225Ac(macropa)]^+ was examined by comparing its biodistribution to those of ^225Ac(NO3)3 and [^225Ac(DOTA)]^−. C57BL/6 mice were injected via tail vein with 10-50 kBq of each radiometal complex and were sacrificed after 15 min, 1 h, or 5 h. The amount of ^225Ac retained in each organ was quantified by gamma counting and reported as the percent of injected dose per gram of tissue (% ID/g). The results of these studies are compiled in Tables 1-3. Inadequate stability of an ^225Ac complex leading to the loss of radioisotope in vivo is manifested by the accumulation of ^225Ac in the liver, spleen, and bone of mice.^[11,12,32] […] The biodistribution profile of [^225Ac(macropa)]^+ (FIG. 3B) differs markedly from that of ^225Ac(NO3)3. […] Its biodistribution profile was similar to that of [^225Ac(DOTA)]^− (FIG. 3C), which has been previously shown to retain ^225Ac in vivo.^[7]

[1] = 15 min after i.v. injection, energy window A (60-120 keV)
[2] = 15 min after i.v. injection, energy window C (400-480 keV)
[3] = 1 h after i.v. injection, energy window A (60-120 keV)
[4] = 1 h after i.v. injection, energy window B (180-260 keV)
[5] = 1 h after i.v. injection, energy window C (400-480 keV)
[6] = 5 h after i.v. injection, energy window A (60-120 keV)
[7] = 5 h after i.v. injection, energy window B (180-260 keV)
[8] = 5 h after i.v. injection, energy window C (400-480 keV)

## O=C([O-])c1cccc(CN2CCOCCOCCN(Cc3cccc(C(=O)[O-])n3)CCOCCOCC2)n1.[225Ac+3] [[^225Ac(macropa)]^+]
[1]
  Organ distribution: brain: 0.26 % ID/g
  Organ distribution: feces: 0.91 % ID/g
  Organ distribution: large intestines: 2.40 % ID/g
15 min after i.v. injection, energy window B (180-260 keV)
  Organ distribution: brain: 0.23 % ID/g
[2]
  Organ distribution: brain: 0.17 % ID/g
  Organ distribution: pancreas: 3.00 % ID/g
[3]
  Organ distribution: blood: 0.40 % ID/g
  Organ distribution: bone (femur + joint): 0.31 % ID/g
  Organ distribution: brain: 0.12 % ID/g
  Organ distribution: feces: 0.28 % ID/g
  Organ distribution: heart: 0.31 % ID/g
  Organ distribution: large intestines: 0.36 % ID/g
  Organ distribution: liver: 0.75 % ID/g
  Organ distribution: lungs: 0.51 % ID/g
  Organ distribution: pancreas: 0.19 % ID/g
  Organ distribution: small intestines: 1.10 % ID/g
  Organ distribution: spleen: 0.51 % ID/g
  Organ distribution: stomach: 0.41 % ID/g
[4]
  Organ distribution: blood: 0.39 % ID/g
  Organ distribution: bone (femur + joint): 0.17 % ID/g
  Organ distribution: brain: 0.12 % ID/g
  Organ distribution: feces: 0.27 % ID/g
  Organ distribution: heart: 0.20 % ID/g
  Organ distribution: large intestines: 0.22 % ID/g
  Organ distribution: liver: 0.70 % ID/g
  Organ distribution: lungs: 0.54 % ID/g
  Organ distribution: pancreas: 0.12 % ID/g
  Organ distribution: small intestines: 0.94 % ID/g
  Organ distribution: spleen: 0.23 % ID/g
  Organ distribution: stomach: 0.33 % ID/g
  Organ distribution: thyroids: 0.10 % ID/g
[5]
  Organ distribution: bladder: 9.00 % ID/g
  Organ distribution: blood: 0.54 % ID/g
  Organ distribution: bone (femur + joint): 0.70 % ID/g
  Organ distribution: brain: 0.23 % ID/g
  Organ distribution: feces: 0.69 % ID/g
  Organ distribution: heart: 0.23 % ID/g
  Organ distribution: large intestines: 0.79 % ID/g
  Organ distribution: lungs: 0.84 % ID/g
  Organ distribution: pancreas: 0.43 % ID/g
  Organ distribution: spleen: 0.48 % ID/g
  Organ distribution: stomach: 0.17 % ID/g
[6]
  Organ distribution: blood: 0.01 % ID/g
  Organ distribution: bone (femur + joint): 0.05 % ID/g
  Organ distribution: brain: 0.02 % ID/g
  Organ distribution: heart: 0.10 % ID/g
  Organ distribution: kidneys: 0.74 % ID/g
  Organ distribution: large intestines: 0.49 % ID/g
  Organ distribution: liver: 0.39 % ID/g
  Organ distribution: lungs: 0.01 % ID/g
  Organ distribution: pancreas: 0.10 % ID/g
  Organ distribution: small intestines: 0.29 % ID/g
  Organ distribution: spleen: 0.11 % ID/g
  Organ distribution: stomach: 0.01 % ID/g
  Organ distribution: tail: 0.14 % ID/g
  Organ distribution: thyroids: 0.10 % ID/g
[7]
  Organ distribution: blood: 0.00 % ID/g
  Organ distribution: bone (femur + joint): 0.02 % ID/g
  Organ distribution: brain: −0.01 % ID/g
  Organ distribution: heart: −0.04 % ID/g
  Organ distribution: kidneys: 0.78 % ID/g
  Organ distribution: large intestines: 0.45 % ID/g
  Organ distribution: liver: 0.36 % ID/g
  Organ distribution: lungs: −0.05 % ID/g
  Organ distribution: pancreas: −0.12 % ID/g
  Organ distribution: small intestines: 0.29 % ID/g
  Organ distribution: spleen: 0.09 % ID/g
  Organ distribution: stomach: 0.04 % ID/g
  Organ distribution: tail: 0.13 % ID/g
[8]
  Organ distribution: blood: 0.04 % ID/g
  Organ distribution: bone (femur + joint): 0.08 % ID/g
  Organ distribution: brain: −0.01 % ID/g
  Organ distribution: heart: 0.28 % ID/g
  Organ distribution: large intestines: 0.68 % ID/g
  Organ distribution: liver: 0.55 % ID/g
  Organ distribution: lungs: 0.15 % ID/g
  Organ distribution: pancreas: 0.13 % ID/g
  Organ distribution: small intestines: 0.42 % ID/g
  Organ distribution: spleen: 0.43 % ID/g
  Organ distribution: stomach: 0.13 % ID/g
  Organ distribution: tail: 0.28 % ID/g
i.v. injection, up to 5 h
  blood clearance and excretion (in words): rapidly cleared from mice
  organ accumulation (in words): did not accumulate in any organ
